The values that follow come from US20210188817A1, “OPHTHALMIC COMPOSITIONS AND METHODS FOR THE TREATMENT OF EYE DISORDERS AND SKIN DISEASES” (Cellix Bio Private Limited, priority 2018, published 2021).

How the values of data set [1] were obtained: SINGLE DOSE OCULAR PHARMACOKINETIC STUDY OF CLX-162 FORMULATION IN MALE NEW ZEALAND WHITE RABBITS: The purpose of this study was to determine the ocular pharmacokinetics of CLX-162, Brimonidine R-(+)-lipoate when administered to male New Zealand white rabbits by topical ocular route.
Aqueous humor samples were collected at pre-determined time points (0.25, 0.5, 1, 2, 4, 8 and 12 h from both eyes) and stored at −70° C. until analysis. Brimonidine was quantified in aqueous humor samples of New Zealand White rabbits, using a specific sensitive LC-MS/MS fit for purpose analytical method.
Brimonidine Pharmacokinetic parameters in aqueous humor of New Zealand white rabbits: […]

For a further data set, the system named is P. acnes. The following applies: 72 hours co-culture; compared with S. aureus and S. epidermidis. The text has this: (§1) ANTI-MICROBIAL PROPERTIES OF CLX-SYN-G162B-C02 AND BRIMONIDINE MALEATE: To compare dose-response effects of CLX-SYN-G162B-C02 [brimonidine eicosapentaenoate salt], compound of present invention and brimonidine maleate [referred as brimonidine], comparative example on the growth of bacteria that are present in the skin flora, P. acnes, Staphylococcus aureus (S. aureus), and Staphylococcus epidermidis (S. epidermidis) were co-cultured with either agent at various concentrations for 72, 24, and 48 hours, respectively.
(§2) Bacterial growth was evaluated by measuring absorbance at 600 nm. The length of cultivation period was determined based on the growth speed of the bacteria. Both, CLX-SYN-G162B-C02 and brimonidine were tested at concentrations of twofold serial dilutions from 0.24 to 500 μg ml-1.

Data set [2] has as its system P. acnes, Staphylococcus aureus (S. aureus), and Staphylococcus epidermidis (S. epidermidis). The following applies: twofold serial dilutions 0.24 to 500 μg ml-1, 72, 24, 48 hours for P. acnes, OD600.
Description: as §1, §2

Setting [3] is: brimonidine in aqueous humor, 50 μL topical ocular, each eye, New Zealand white rabbits.

The Cmax is the peak of the concentration-time curve. Broadly, the Tmax is the time at which the peak concentration occurs. `Brc1c(NC2=NCCN2)ccc2nccnc12.O=C(O)CCCC[C@@H]1CCSS1` [CLX-162, Brimonidine R-(+)-lipoate]: in data set [1] (aqueous humor, ocular administration, comparator not stated), the AUC profile result is “better AUC profile”. In data set [1] (setting [3]), this molecule displayed an AUCinf of 1953 ng·h/mL, an AUClast of 1875 ng·h/mL, a Cmax of 1073 ng/mL and an MRTlast of 75.6 min. Moreover, in data set [1] (setting [3]), the T1/2 amounted to 49.2 min and the Tmax worked out at 30 min. Moreover, the “Time to maximal aqueous humor concentration” value in data set [1] (topical ocular) is at most 0.5 h. Further, the “Brimonidine levels detectable in the aqueous humor, time post dose” value in data set [1] (topical ocular, sampling 0.25-12 h) was “up to 4 h”.
For “Brimonidine Eicosapentaenoate [CLX-SYN-G162B-C02]”, in the data set with P. acnes, the “half maximal effective concentration on P. acnes growth” value is listed as “lowest among the bacteria tested”. Moreover, in data set [2], the “minimal inhibitory concentration (MIC)” value was “had shown to prevent bacterial growth”.
For “brimonidine maleate [reference compound]”, the “minimal inhibitory concentration (MIC)” value in data set [2] is listed as “no MIC”.
